Results on 24 compounds are retold here after patent US12410160B2 (Gilead Sciences, Inc., priority 2021, dated 2025).

The target of test [1] is human KHK-A (Homo sapiens (Human), UniProt P50053). Kind of test: KHK Biochemical Assay (IC50), ADP-Glo, KHK-A. The conditions noted are these: average of at least two separate assays. The method in brief:
(§1)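 His-tagged enzyme expressed in BL21 (DE3), Ni-NTA purified. Compounds, serially diluted 1:3 in DMSO, pre-incubated 30 min with enzyme in 50 mM Hepes pH 7.4, 140 mM KCl, 5 mM MgCl2, 0.01% Triton-X, then ATP and fructose added; 4 h at room temperature. ADP formation read by ADP-Glo luminescence.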
(ADP-Glo turns the ADP formed in a reaction into a luminescent signal.)

Test [2] has as its target human KHK-C (Homo sapiens (Human), UniProt P50053). Kind of test: KHK Biochemical Assay (IC50), ADP-Glo, KHK-C. The conditions noted are these: average of at least two separate assays. In a few lines: as §1

human KHK-A, sequence (P50053 other isoform, or with tags, fused parts or gaps): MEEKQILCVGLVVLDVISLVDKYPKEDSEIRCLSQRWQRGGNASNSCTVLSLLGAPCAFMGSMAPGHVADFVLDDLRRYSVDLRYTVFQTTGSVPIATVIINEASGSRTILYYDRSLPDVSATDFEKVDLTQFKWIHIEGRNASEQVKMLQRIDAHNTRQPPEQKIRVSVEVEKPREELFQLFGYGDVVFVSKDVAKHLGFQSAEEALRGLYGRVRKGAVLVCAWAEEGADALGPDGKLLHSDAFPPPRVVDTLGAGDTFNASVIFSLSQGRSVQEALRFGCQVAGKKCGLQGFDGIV
human KHK-C, sequence (P50053 whole entry): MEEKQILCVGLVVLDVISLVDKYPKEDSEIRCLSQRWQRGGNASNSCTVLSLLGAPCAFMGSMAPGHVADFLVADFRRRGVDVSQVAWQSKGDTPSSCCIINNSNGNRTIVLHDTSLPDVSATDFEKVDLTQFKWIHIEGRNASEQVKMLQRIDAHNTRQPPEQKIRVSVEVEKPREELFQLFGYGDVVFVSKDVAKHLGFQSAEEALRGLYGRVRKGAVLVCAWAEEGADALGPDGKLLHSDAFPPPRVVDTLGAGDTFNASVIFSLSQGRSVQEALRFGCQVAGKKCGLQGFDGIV

In the case of `CS(=O)(=O)N[C@H]1COc2cc(-c3nc(N4CC[C@@H]4C(F)(F)F)nc4c3CCC4(F)F)ccc21` [Example 577, N—((R)-6-(7,7-difluoro-2-((R)-2-(trifluoromethyl)azetidin-1-yl)-6,7-dihydro-5H-cyclopenta[d]pyrimidin-4-yl)-2,3-dihydrobenzofuran-3-yl)methanesulfonamide], the IC50 (usually the concentration needed to halve the response being measured) was determined as 2.1 nM in test [1] and 0.6 nM in test [2].

Turning to `C[C@H]1[C@H](O)CN1c1nc(-c2ccc3c(c2)COC[C@H]3NS(C)(=O)=O)c2c(n1)C(F)(F)CC2` [Example 578, N—((S)-7-(7,7-difluoro-2-((2S,3R)-3-hydroxy-2-methylazetidin-1-yl)-6,7-dihydro-5H-cyclopenta[d]pyrimidin-4-yl)isochroman-4-yl)methanesulfonamide], the values for the IC50 in test [1] and in test [2] were 22.5 nM and 6.1 nM, respectively.

`C[C@H]1[C@H](O)CN1c1nc(-c2ccc3c(c2)COC[C@@H]3NS(=O)(=O)C2CC2)c2c(n1)C(F)(F)CC2` [Example 579, N—((R)-7-(7,7-difluoro-2-((2S,3R)-3-hydroxy-2-methylazetidin-1-yl)-6,7-dihydro-5H-cyclopenta[d]pyrimidin-4-yl)isochroman-4-yl)cyclopropanesulfonamide]: the half-inhibitory concentration (IC50) is 25 nM in test [1] and 2.7 nM in test [2].

Consider `CS(=O)(=O)N[C@H]1COCc2cc(-c3nc(N4CC[C@@H]4C(F)(F)F)nc4c3CCC4(F)F)ccc21` [Example 581, N—((R)-7-(7,7-difluoro-2-((R)-2-(trifluoromethyl)azetidin-1-yl)-6,7-dihydro-5H-cyclopenta[d]pyrimidin-4-yl)isochroman-4-yl)methanesulfonamide], for which the results for the IC50 in test [1] and in test [2] were 3.1 nM and 0.8 nM, respectively.

On to `C[C@H]1[C@H](F)CN1c1nc(-c2ccc3c(c2)COC[C@@H]3NS(C)(=O)=O)c2c(n1)C(F)(F)CC2` [Example 582, N—((R)-7-(7,7-difluoro-2-((2S,3R)-3-fluoro-2-methylazetidin-1-yl)-6,7-dihydro-5H-cyclopenta[d]pyrimidin-4-yl)isochroman-4-yl)methanesulfonamide], for which the IC50 was determined as 7 nM in test [1] and 0.8 nM in test [2].

On to `C[C@H]1[C@@H](F)CN1c1nc(-c2ccc3c(c2)COC[C@@H]3NS(C)(=O)=O)c2c(n1)C(F)(F)CC2` [Example 583, N—((R)-7-(7,7-difluoro-2-((28,38)-3-fluoro-2-methylazetidin-1-yl)-6,7-dihydro-5H-cyclopenta[d]pyrimidin-4-yl)isochroman-4-yl)methanesulfonamide], for which the IC50 in test [1] turned out to be 8.7 nM; in test [2] it was 1.3 nM.

In the case of `C[C@@H]1N(c2nc(-c3ccc4c(c3)COC[C@@H]4NS(C)(=O)=O)c3c(n2)C(F)(F)CC3)CC1(F)F` [Example 584, N—((R)-7-(2-((S)-3,3-difluoro-2-methylazetidin-1-yl)-7,7-difluoro-6,7-dihydro-5H-cyclopenta[d]pyrimidin-4-yl)isochroman-4-yl)methanesulfonamide], the IC50 was determined as 19.8 nM in test [1] and 2.6 nM in test [2].

For `C[C@H]1[C@H](O)CN1c1nc(-c2ccc3c(c2)OC[C@@H]3NC2COC2)c2c(n1)C(F)(F)CC2` [Example 585, (2S,3R)-1-[7,7-difluoro-4-[(3R)-3-(oxetan-3-ylamino)-2,3-dihydrobenzofuran-6-yl]-5,6-dihydrocyclopenta[d]pyrimidin-2-yl]-2-methyl-azetidin-3-ol], the half-inhibitory concentration (IC50) in test [1] is 41.6 nM; in test [2] it was 21.2 nM.

On to `NC1(c2ccc(-c3nc(N4CC[C@@H]4C(F)(F)F)nc4c3CCC4(F)F)cc2)CCOC1` (stereo partly drawn) [Example 587, 3-[4-[7,7-difluoro-2-[(2R)-2-(trifluoromethyl)azetidin-1-yl]-5,6-dihydrocyclopenta[d]pyrimidin-4-yl]phenyl]tetrahydrofuran-3-amine], for which the half-inhibitory concentration (IC50) in test [1] amounted to 0.5 nM; in test [2], 0.4 nM.

As to `NC1(c2ccc(-c3nc(N4CC[C@@H]4C(F)(F)F)nc4c3CCC4(F)F)cc2F)COC1` [Example 589, 3-[4-[7,7-difluoro-2-[(2R)-2-(trifluoromethyl)azetidin-1-yl]-5,6-dihydrocyclopenta[d]pyrimidin-4-yl]-2-fluoro-phenyl]oxetan-3-amine], the IC50 in test [1] turned out to be 2.7 nM; in test [2], 1.4 nM.

On to `NC1(c2ccc(-c3nc(N4CCC4C(F)F)nc4c3CCC4(F)F)cc2)COC1` (stereo not drawn) [Example 678, 3-[4-[2-[2-(difluoromethyl)azetidin-1-yl]-7,7-difluoro-5,6-dihydrocyclopenta[d]pyrimidin-4-yl]phenyl]oxetan-3-amine], for which the IC50 amounted to 4.6 nM in test [1] and 1.8 nM in test [2].

`NC1(c2ccc(-c3nc(N4CCC4C(F)(F)F)nc4c3CCC4(F)F)cc2)COC1` (stereo not drawn) [Example 683, 3-[4-[7,7-difluoro-2-[2-(trifluoromethyl)azetidin-1-yl]-5,6-dihydrocyclopenta[d]pyrimidin-4-yl]phenyl]oxetan-3-amine]: the values for the IC50 in test [1] and in test [2] were 2.4 nM and 0.9 nM, respectively.

With `CCN1C(=O)NC2(COc3cc(-c4nc(N5C[C@@H](O)[C@@H]5C)nc5c4CCC5(F)F)ccc32)C1=O` (stereo partly drawn) [Example 689, 6-[7,7-difluoro-2-[(2S,3R)-3-hydroxy-2-methyl-azetidin-1-yl]-5,6-dihydrocyclopenta[d]pyrimidin-4-yl]-3′-ethyl-spiro[2H-benzofuran-3,5′-imidazolidine]-2′,4′-dione], the IC50 in test [1] worked out at 14.2 nM; in test [2], 0.2 nM.

Consider `CC(C)N1C(=O)NC2(COc3cc(-c4nc(N5C[C@@H](O)[C@@H]5C)nc5c4CCC5(F)F)ccc32)C1=O` (stereo partly drawn) [Example 690], for which the results for the IC50 in test [1] and in test [2] were 45.4 nM and 0.3 nM, respectively.

For the compound `O=C1NC(=O)C2(COc3cc(-c4nc(N5CC[C@@H]5C(F)(F)F)nc5c4CCC5(F)F)ccc32)N1` (stereo partly drawn) [Example 703, 6-[7,7-difluoro-2-[(2R)-2-(trifluoromethyl)azetidin-1-yl]-5,6-dihydrocyclopenta[d]pyrimidin-4-yl]spiro[2H-benzofuran-3,5′-imidazolidine]-2′,4′-dione], the IC50 in test [1] turned out to be 1 nM; in test [2], 0.4 nM.

Turning to `COc1cc(-c2nc(N3C[C@@H](O)[C@@H]3C)nc3c2CCC3(F)F)cc(S(C)(=N)=O)c1` (stereo partly drawn) [Example 719, (3-(7,7-difluoro-2-((2S,3R)-3-hydroxy-2-methylazetidin-1-yl)-6,7-dihydro-5H-cyclopenta[d]pyrimidin-4-yl)-5-methoxyphenyl)(imino)(methyl)-λ^6-sulfanone], the figures for the IC50 in test [1] and in test [2] were 32.1 nM and 21.7 nM, respectively.

As to `Cc1cc(-c2nc(N3C[C@@H](O)[C@@H]3C)nc3c2CCC3(F)F)cc(S(C)(=N)=O)c1` (stereo partly drawn) [Example 720, (3-(7,7-difluoro-2-((2S,3R)-3-hydroxy-2-methylazetidin-1-yl)-6,7-dihydro-5H-cyclopenta[d]pyrimidin-4-yl)-5-methylphenyl)(imino)(methyl)-λ^6-sulfanone], the IC50 in test [1] is 11.6 nM; in test [2] it was 8.8 nM.

With `C[C@H]1[C@H](O)CN1c1nc(-c2ccc(C(F)F)c(S(C)(=N)=O)c2)c2c(n1)C(F)(F)CC2` (stereo partly drawn) [Example 721, (5-(7,7-difluoro-2-((2S,3R)-3-hydroxy-2-methylazetidin-1-yl)-6,7-dihydro-5H-cyclopenta[d]pyrimidin-4-yl)-2-(difluoromethyl)phenyl)(imino)(methyl)-λ^6-sulfanone], the IC50 amounted to 28.3 nM in test [1] and 23.2 nM in test [2].

For the compound `NC1(c2ccc(-c3nc(N4CC[C@@H]4C(F)(F)F)nc4c3CCC4(F)F)cc2)CCS(=O)(=O)CC1` [Example 738, (R)-4-amino-4-(4-(7,7-difluoro-2-(2-(trifluoromethyl)azetidin-1-yl)-6,7-dihydro-5H-cyclopenta[d]pyrimidin-4-yl)phenyl)tetrahydro-2H-thiopyran 1,1-dioxide], the IC50 in test [1] and in test [2] was 2 nM throughout.

Regarding `COC(=O)NC1COc2cc(-c3nc(N4C[C@@H](O)[C@@H]4C)nc4c3CCC4(F)F)cc(OC)c21` (stereo partly drawn) [Example 824, Methyl N-[6-[7,7-difluoro-2-[(2S,3R)-3-hydroxy-2-methyl-azetidin-1-yl]-5,6-dihydrocyclopenta[d]pyrimidin-4-yl]-4-methoxy-2,3-dihydrobenzofuran-3-yl]carbamate], the half-maximal inhibitory concentration (IC50) was determined as 91.6 nM in test [1] (ADP-Glo) and 8.6 nM in test [2] (ADP-Glo).

Take `COc1cc(-c2nc(N3CC[C@@H]3C(F)(F)F)nc3c2CCC3(F)F)ccc1C1(N)COC1` [Example 837, (R)-3-(4-(7,7-difluoro-2-(2-(trifluoromethyl)azetidin-1-yl)-6,7-dihydro-5H-cyclopenta[d]pyrimidin-4-yl)-2-methoxyphenyl)oxetan-3-amine]: the IC50 in test [1] (ADP-Glo) worked out at 1 nM; in test [2] (ADP-Glo), 0.7 nM.

In the case of `C[C@H]1[C@H](O)CN1c1nc(-c2ccc(C3(N)CCOCC3)cc2)c2c(n1)C(F)(F)CC2` [Example 838, (2S,3R)-1-(4-(4-(4-aminotetrahydro-2H-pyran-4-yl)phenyl)-7,7-difluoro-6,7-dihydro-5H-cyclopenta[d]pyrimidin-2-yl)-2-methylazetidin-3-ol], the IC50 was 4.8 nM in test [1] (ADP-Glo) and 4.1 nM in test [2] (ADP-Glo).

Take `C[C@H]1CCN1c1nc2c(c(-c3ccc(OCc4ccccc4)c(S(C)(=N)=O)c3)n1)CCC2` (stereo partly drawn) [Example 839, (2-(benzyloxy)-5-(2-((S)-2-methylazetidin-1-yl)-6,7-dihydro-5H-cyclopenta[d]pyrimidin-4-yl)phenyl)(imino)(methyl)4^6-sulfanone]: the IC50 in test [1] (ADP-Glo) is 15.8 nM; in test [2] (ADP-Glo) it was 15.9 nM.

For `COc1ccc(-c2nc(N3CC[C@@H]3C)nc3c2CCC3)cc1S(=N)(=O)C1CCOCC1` (stereo partly drawn) [Example 840, imino(2-methoxy-5-(2-((S)-2-methylazetidin-1-yl)-6,7-dihydro-5H-cyclopenta[d]pyrimidin-4-yl)phenyl)(tetrahydro-2H-pyran-4-yl)-λ^6-sulfanone], the IC50 was 7.7 nM in test [1] (ADP-Glo) and 26.3 nM in test [2] (ADP-Glo).
